Laboratory results reported in ChEMBL document CHEMBL5500417, “Discovery of Novel 2-Oxoacetamide Derivatives as B3GAT3 Inhibitors for the Treatment of Hepatocellular Carcinoma” (J Med Chem, 2024).

Assays:
[1] = target: T1, Galactosylgalactosylxylosylprotein 3-beta-glucuronosyltransferase 3 (Homo sapiens, UniProt O94766); assay: Binding affinity to CM5 sensor chip immobilized human B3GAT3 assessed as dissociation constant by SPR analysis
T1 sequence (O94766 whole entry): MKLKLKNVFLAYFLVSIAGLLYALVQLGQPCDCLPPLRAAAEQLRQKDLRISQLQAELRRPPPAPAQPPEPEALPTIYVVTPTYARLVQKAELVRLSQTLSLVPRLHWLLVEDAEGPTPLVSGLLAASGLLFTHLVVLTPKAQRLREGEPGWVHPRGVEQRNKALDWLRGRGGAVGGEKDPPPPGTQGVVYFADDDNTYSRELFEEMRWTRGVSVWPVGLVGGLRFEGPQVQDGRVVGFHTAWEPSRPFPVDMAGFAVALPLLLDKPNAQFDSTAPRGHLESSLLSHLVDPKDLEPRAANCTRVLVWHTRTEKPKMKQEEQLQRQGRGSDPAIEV

[2] = target: T1, Galactosylgalactosylxylosylprotein 3-beta-glucuronosyltransferase 3; assay: Binding affinity to biotinylated B3GAT3 (unknown origin) assessed as dissociation constant by biolayer interferometry (BLI) analysis
MHCC97H [3] = assay: Cytotoxicity against (shRNA)-Ctrl transfected human MHCC97H cells assessed as cell viability measured after 72 hrs by CCK8 assay
MHCC97H [4] = assay: Cytotoxicity against (shRNA)-mediated B3GAT3 KO human MHCC97H cells assessed as cell viability measured after 72 hrs by CCK8 assay
MHCC97H [5] = assay: In vivo-antitumor activity against human MHCC97H cells xenografted BALB/c mouse model assessed as tumor growth inhibitor at 10 mg/kg, IG once daily measured after 31 days relative to control; details: po, 744 h, read-out: TGI
MHCC97H [6] = assay: In vivo-antitumor activity against human MHCC97H cells xenografted BALB/c mouse model assessed as tumor growth inhibitor at 20 mg/kg, IG once daily measured after 31 days relative to control; details: po, 744 h, read-out: TGI
HCCLM3 [7] = assay: In vivo-antitumor activity against human HCCLM3 cells xenografted BALB/c mouse model assessed as tumor growth inhibitor at 10 mg/kg, IG once daily measured after 31 days relative to control; details: HCCLM3, po, 744 h, read-out: TGI
[8] = Half life in BALB/c mouse at 1.2 mg/kg, iv measured upto 24 hrs by LC-MS/MS analysis; details: in vivo
[9] = Clearance in BALB/c mouse at 1.2 mg/kg, iv measured upto 24 hrs by LC-MS/MS analysis; details: in vivo
[10] = Half life in BALB/c mouse at 10 mg/kg, po measured upto 24 hrs by LC-MS/MS analysis; details: in vivo
[11] = Clearance in BALB/c mouse at 10 mg/kg, po measured upto 24 hrs by LC-MS/MS analysis; details: in vivo
MHCC97H [12] = assay: In vivo-antitumor activity against human MHCC97H cells xenografted BALB/c mouse model assessed as tumor growth inhibitor at 5 mg/kg, IG once daily measured after 31 days relative to control; details: po, 744 h, read-out: TGI
HCCLM3 [13] = assay: In vivo-antitumor activity against human HCCLM3 cells xenografted BALB/c mouse model assessed as reduction in tumor weight at 5 mg/kg, IG once daily measured after 31 days relative to control; details: HCCLM3, po, 744 h, read-out: INH
MHCC97H [14] = assay: cells; details: Homo sapiens, 72 h
Description: Antitumor activity against human MHCC97H cells assessed as inhibition of cell growth measured after 72 hrs by CCK-8 assay

HCCLM3 [15] = assay: cells; details: Homo sapiens, HCCLM3, 72 h
Description: Antitumor activity against human HCCLM3 cells assessed as inhibition of cell growth measured after 72 hrs by CCK-8 assay

THLE-2 = assay: cells; details: Homo sapiens, THLE-2, 72 h
Description: Antitumor activity against human THLE-2 cells assessed as inhibition of cell proliferation measured after 72 hrs by CCK-8 assay

MHCC97H [16] = assay: cells; details: Homo sapiens, 72 h; remark: listed apart in the source
Description: Antitumor activity against human MHCC97H cells assessed as inhibition of cell proliferation measured after 72 hrs by CCK-8 assay

HCCLM3 [17] = assay: cells; details: Homo sapiens, HCCLM3, 72 h; remark: listed apart in the source
Description: Antitumor activity against human HCCLM3 cells assessed as inhibition of cell proliferation measured after 72 hrs by CCK-8 assay

Huh-7 = assay: cells; details: Homo sapiens, Huh-7, 72 h
Description: Antitumor activity against human Huh-7 cells assessed as inhibition of cell proliferation measured after 72 hrs by CCK-8 assay

Hep 3B2 = assay: cells; details: Homo sapiens, Hep3B, 72 h
Description: Antitumor activity against human Hep3B cells assessed as inhibition of cell proliferation measured after 72 hrs by CCK-8 assay

SNU-387 = assay: cells; details: Homo sapiens, SNU-387, 72 h
Description: Antitumor activity against human SNU-387 cells assessed as inhibition of cell proliferation measured after 72 hrs by CCK-8 assay

PLC-PRF-5 = assay: cells; details: Homo sapiens, PLC-PRF-5, 72 h
Description: Antitumor activity against human PLC-PRF-5 cells assessed as inhibition of cell proliferation measured after 72 hrs by CCK-8 assay

Hepa 1-6 = assay: cells; details: Mus musculus, Hepa1-6, 72 h
Description: Antitumor activity against mouse Hepa1-6 cells assessed as inhibition of cell proliferation measured after 72 hrs by CCK-8 assay

NCI-H446 = assay: cells; details: Homo sapiens, NCI-H446, 72 h
Description: Anti-tumor activity against human NCI-H446 cells assessed as inhibition of cell growth measured after 72 hrs by CCK-8 assay

NCI-H1650 = assay: cells; details: Homo sapiens, NCI-H1650, 72 h
Description: Anti-tumor activity against human NCI-H1650 cells assessed as inhibition of cell growth measured after 72 hrs by CCK-8 assay

Calu-3 = assay: cells; details: Homo sapiens, Calu-3, 72 h
Description: Anti-tumor activity against human Calu-3 cells assessed as inhibition of cell growth measured after 72 hrs by CCK-8 assay

PC-3 = assay: cells; details: Homo sapiens, PC-3, 72 h
Description: Anti-tumor activity against human PC-3 cells assessed as inhibition of cell growth measured after 72 hrs by CCK-8 assay

SK-OV-3 = assay: cells; details: Homo sapiens, SK-OV-3, 72 h
Description: Anti-tumor activity against human SK-OV-3 cells assessed as inhibition of cell growth measured after 72 hrs by CCK-8 assay

AGS = assay: cells; details: Homo sapiens, 72 h
Description: Anti-tumor activity against human AGS cells assessed as inhibition of cell growth measured after 72 hrs by CCK-8 assay

MKN-45 = assay: cells; details: Homo sapiens, MKN-45, 72 h
Description: Anti-tumor activity against human MKN-45 cells assessed as inhibition of cell growth measured after 72 hrs by CCK-8 assay

HT-29 = assay: cells; details: Homo sapiens, HT-29, 72 h
Description: Anti-tumor activity against human HT-29 cells assessed as inhibition of cell growth measured after 72 hrs by CCK-8 assay

SW-620 = assay: cells; details: Homo sapiens, SW-620, 72 h
Description: Anti-tumor activity against human SW620 cells assessed as inhibition of cell growth measured after 72 hrs by CCK-8 assay

MDA-MB-231 = assay: cells; details: Homo sapiens, MDA-MB-231, 72 h
Description: Anti-tumor activity against human MDA-M8-231 cells assessed as inhibition of cell growth measured after 72 hrs by CCK-8 assay

HCC1937 = assay: cells; details: Homo sapiens, HCC1937, 72 h
Description: Anti-tumor activity against human HCC1937 cells assessed as inhibition of cell growth measured after 72 hrs by CCK-8 assay

U-251 = assay: cells; details: Homo sapiens, U-251, 72 h
Description: Anti-tumor activity against human U-251MG cells assessed as inhibition of cell growth measured after 72 hrs by CCK-8 assay

H4 = assay: cells; details: Homo sapiens, H4, 72 h
Description: Anti-tumor activity against human H4 cells assessed as inhibition of cell growth measured after 72 hrs by CCK-8 assay

U-937 = assay: cells; details: Homo sapiens, U-937, 72 h
Description: Anti-tumor activity against human U-937 cells assessed as inhibition of cell growth measured after 72 hrs by CCK-8 assay

THP-1 = assay: cells; details: Homo sapiens, THP-1, 72 h
Description: Anti-tumor activity against human THP-1 cells assessed as inhibition of cell growth measured after 72 hrs by CCK-8 assay

K562 = assay: cells; details: Homo sapiens, K562, 72 h
Description: Anti-tumor activity against human K562 cells assessed as inhibition of cell growth measured after 72 hrs by CCK-8 assay

MEG-01 = assay: cells; details: Homo sapiens, MEG-01, 72 h
Description: Anti-tumor activity against human MEG-01 cells assessed as inhibition of cell growth measured after 72 hrs by CCK-8 assay

Jurkat = assay: cells; details: Homo sapiens, 72 h
Description: Anti-tumor activity against human Jurkat cells assessed as inhibition of cell growth measured after 72 hrs by CCK-8 assay

in vivo [18] = details: BALB/c, mouse, iv, 1.2 mg/kg
Description: AUC in BALB/c mouse at 1.2 mg/kg, iv measured upto 24 hrs by LC-MS/MS analysis

in vivo [19] = details: BALB/c, mouse, iv, 1.2 mg/kg; remark: listed apart in the source
Description: Tmax in BALB/c mouse at 1.2 mg/kg, iv measured upto 24 hrs by LC-MS/MS analysis

in vivo [20] = details: BALB/c, mouse, iv, 1.2 mg/kg; remark: listed apart in the source
Description: Cmax in BALB/c mouse at 1.2 mg/kg, iv measured upto 24 hrs by LC-MS/MS analysis

in vivo [21] = details: BALB/c, mouse, po, 10 mg/kg
Description: AUC in BALB/c mouse at 10 mg/kg, po measured upto 24 hrs by LC-MS/MS analysis

in vivo [22] = details: BALB/c, mouse, po, 10 mg/kg; remark: listed apart in the source
Description: Tmax in BALB/c mouse at 10 mg/kg, po measured upto 24 hrs by LC-MS/MS analysis

in vivo [23] = details: BALB/c, mouse, po, 10 mg/kg; remark: listed apart in the source
Description: Cmax in BALB/c mouse at 10 mg/kg, po measured upto 24 hrs by LC-MS/MS analysis

in vivo [24] = details: BALB/c, mouse, po, 10 mg/kg; remark: listed apart in the source
Description: Oral bioavailability in BALB/c mouse at 10 mg/kg measured upto 24 hrs by LC-MS/MS analysis

in vitro [25] = details: human, liver microsomes
Description: Metabolic stability in human liver microsomes assessed as half life at 0.02 uM measured upto 60 mins by LC-MS/MS analysis

in vitro [26] = details: rat, liver microsomes
Description: Metabolic stability in rat liver microsomes assessed as half life at 0.02 uM measured upto 60 mins by LC-MS/MS analysis

in vitro [27] = details: mouse, liver microsomes
Description: Metabolic stability in mouse liver microsomes assessed as half life at 0.02 uM measured upto 60 mins by LC-MS/MS analysis

Kd [1]: 3.96 µM
Kd [2]: 6.62 µM
half-life at 24 h [8]: 46.2 min
clearance at 24 h [9]: 10 mL/min/kg
half-life at 24 h [10]: 251 min
CL/F at 24 h [11]: 20 mL/min/kg
IC50 (MHCC97H [14]): 6.53 µM
IC50 (HCCLM3 [15]): 6.22 µM
IC50 (THLE-2): > 20 µM
IC50 (MHCC97H [16]): 18.9 µM
IC50 (HCCLM3 [17]): 18.4 µM
IC50 (Huh-7): 12.5 µM
IC50 (Hep 3B2): 12.2 µM
IC50 (SNU-387): 11.7 µM
IC50 (PLC-PRF-5): 6.52 µM
IC50 (Hepa 1-6): 6.22 µM
IC50 (NCI-H446): 11.6 µM
IC50 (NCI-H1650): 21.6 µM
IC50 (Calu-3): 41.6 µM
IC50 (PC-3): 13.7 µM
IC50 (SK-OV-3): 98.7 µM
IC50 (AGS): 5.33 µM
IC50 (MKN-45): 13.9 µM
IC50 (HT-29): 4.71 µM
IC50 (SW-620): 8.66 µM
IC50 (MDA-MB-231): 12.3 µM
IC50 (HCC1937): 47.9 µM
IC50 (U-251): 6.16 µM
IC50 (H4): 6.65 µM
IC50 (U-937): 5.99 µM
IC50 (THP-1): 23.9 µM
IC50 (K562): 8.25 µM
IC50 (MEG-01): 11.5 µM
IC50 (Jurkat): 6.69 µM
AUC at 24 h (in vivo [18]): 1850 ng·h/mL
Tmax at 24 h (in vivo [19]): 4.8 min
Cmax at 24 h (in vivo [20]): 3350 ng/mL
AUC at 24 h (in vivo [21]): 9520 ng·h/mL
Tmax at 24 h (in vivo [22]): 13.2 min
Cmax at 24 h (in vivo [23]): 9140 ng/mL
bioavailability at 24 h (in vivo [24]): 66.4%
half-life at 1 h, 0.02 µM (in vitro [25]): 17 min
half-life at 1 h, 0.02 µM (in vitro [26]): 25.9 min
half-life at 1 h, 0.02 µM (in vitro [27]): 37.9 min
Compound: COC(=O)c1ccc2[nH]cc(C(=O)C(=O)NC3CCN(c4ccc(C)cc4Cl)C3=O)c2c1 (stereo unspecified)
IC50 (MHCC97H [3]): 6.92 µM
IC50 (MHCC97H [4]): 17 µM
inhibition in vivo at 10 mg/kg (MHCC97H [5]): 70%
inhibition in vivo at 20 mg/kg (MHCC97H [6]): 73.5%
inhibition in vivo at 10 mg/kg (HCCLM3 [7]): 59%
inhibition in vivo at 5 mg/kg (MHCC97H [12]): 23.4%
inhibition in vivo at 5 mg/kg (HCCLM3 [13]): 58.8%
